Here are results for 2 compounds from paper PMC9228987, “Antiproliferative Activity of a New Quinazolin-4(3H)-One Derivative via Targeting Aurora Kinase A in Non-Small Cell Lung Cancer” (Pharmaceuticals, 2022).

Test [1] has as its system H1975 cells. Kind of test: Colony formation assay. It counts as cell-based, human. Conditions: treated 48 h, additional ten days without compound. Here is the method:
Cells (500 cells/well) were seeded and cultured overnight. The compounds were treated for 48 h, the cells were washed with phosphate buffered saline (PBS), and continued incubation. Culture medium was replaced every three days for ten days. Cells were fixed with 4% paraformaldehyde solution and stained with 0.1% crystal violet.

Test [2] has as its system HCC827 cells. Kind of test: SRB cell proliferation assay. The conditions noted are these: Homo sapiens, HCC827, 72 h, read-out: IC50 value, HCC827.
Protocol: (§3) The human non-small lung cancer cell lines A549, NCI-H1975, NCI-H1299, and NCI-H1993 were purchased from the American Type Culture Collection (Manassas, VA, USA). The human non-small cell lung cancer cell lines HCC827, PC9, HCC827-gef and PC9-gef were a kind gift from Dr. Jae Cheol Lee and Dr. Jin Kyung Rho (Asan Medical Center, Seoul, Korea). […] Cells were incubated at 37 °C in a humidified atmosphere with 5% CO2.
(§4) Cell viability was measured using the SRB method as described previously [58]. Briefly, cells were seeded with different concentrations of compounds and incubated for 72 h. After 72 h incubation, cells were fixed with 10% TCA for 30 min at 4 °C and stained with 0.4% (w/v) SRB in 1% acetic acid for 2 h at room temperature.
The test system of test [3] is H1299 cells. In words: SRB cell proliferation assay. Conditions: Homo sapiens, NCI-H1299, 72 h, read-out: IC50 value, H1299.
Protocol: as §3, §4
In test [4] the test system is H1975 cells. In words: SRB cell proliferation assay. Conditions: Homo sapiens, NCI-H1975, 72 h, read-out: IC50 value, H1975.
Protocol: as §3, §4
Test [5] concerns p-aurora kinase A (T288). Kind of test: Western blotting of phospho-aurora kinase A in H1975 cells. It counts as cell-based, human. The conditions noted are these: 24 h. The text has this: (§1) The cells were collected and lysed in sample loading buffer (Bio-Rad, Hercules, CA, USA). Total protein concentrations were quantified using a BCA Protein Assay Kit (Thermo Fisher Scientific, Waltham, MA, USA). Quantified proteins were loaded onto SDS-polyacrylamide gels and separated by molecular weight via electrophoresis (PAGE). Then, proteins were transferred to polyvinylidene fluoride membranes (Millipore, Bedford, MA, USA); 5% BSA in Tris-buffered saline containing 0.1% Tween-20 (TBST) was used for blocking. The membranes were blocked for 30 min at room temperature with mild shaking, then incubated with antibodies diluted in 2.5% BSA in TBST overnight at 4 °C with mild shaking. Following secondary antibody incubation and washing with TBST, the chemiluminescence signals were detected using the WEST-Queen detection system (iNtRON Biotechnology, Seongnam, Korea) and LAS-4000 (Fuji Film Corp., Tokyo, Japan).
Background: In western blotting, separated proteins are transferred to a membrane and probed.

The test system of test [6] is A549 cells. Kind of test: SRB cell proliferation assay. Conditions: Homo sapiens, A549, 72 h, read-out: IC50 value, A549.
Protocol: as §3, §4
Test [7] has as its system cleaved PARP, PARP, cleaved caspase-8, and caspase-8 proteins. In words: Western blotting of apoptosis-related proteins in H1975 cells. It counts as cell-based, human. The conditions noted are these: H1975, 72 h, concentration-dependent.
Text: as §1

In test [8] the test system is PC9 cells. In words: SRB cell proliferation assay. Conditions: Homo sapiens, PC-9, 72 h, read-out: IC50 value, PC9.
Protocol: as §3, §4
The test system of test [9] is HCC827-gef cells. Kind of test: SRB cell proliferation assay. The conditions noted are these: Homo sapiens, 72 h, read-out: IC50 value, HCC827-gef.
Protocol: as §3, §4
The subject of test [10] is cdc25C, cdc2, and p21 proteins. Kind of test: Western blotting of cell cycle regulators in H1975 cells. It counts as cell-based, human. Conditions: H1975, 24 h.
Text: as §1

The test system of test [11] is H1975 cells. In words: Annexin V-FITC/PI double staining (flow cytometry). It counts as cell-based, human. How it is done:
Cells were treated with samples for 72 h and stained with an Annexin V-FITC apoptosis detection kit (BD Biosciences, San Jose, CA, USA) according to the manufacturer’s instructions. Briefly, cells were collected after 72 h treatment, washed with PBS, resuspended in 1× binding buffer, and stained with Annexin V-FITC and PI in the dark for 15 min. After incubation, the cells were diluted with 1× binding buffer and analyzed using an FACSCalibur flow cytometer (BD Biosciences, San Jose, CA, USA) and BD CellQuest^TM Pro version 6.0 software (BD Biosciences, San Jose, CA, USA).
(In general: A flow cytometer gives signals particle by particle.)

Test [12] concerns the target T1, Recombinant human aurora B protein (Homo sapiens, UniProt Q96GD4).
T1 construct: purchased Abcam ab51435
In words: Cell-free aurora kinase assay (ADP-Glo). It counts as biochemical. Conditions: myelin basic protein substrate, read-out: Aurora Kinase B Inhibition (IC50). Here is the method: (§2) Aurora A kinase activity was measured using an ADP-Glo™ Kinase assay kit (Promega, USA, Catalog No. # PAV9101). Recombinant human aurora A protein (Active) (ab271368) and Recombinant human aurora B protein (Active) (ab51435) were purchased from Abcam (United States, Boston, MA). […] The ADP-Glo ^TM reagents and kinase detection buffer and substrates were prepared according to the ADP-Glo™ Kinase Assay kit instructions. Luminescence was measured using a microplate reader.
(In general: ADP-Glo first removes unused ATP, then detects ADP through luciferase.)

Test [13] has as its target T2, Recombinant human aurora A protein (Homo sapiens, UniProt O14965).
T2 construct: purchased Abcam ab271368
T2 sequence (O14965 1-403): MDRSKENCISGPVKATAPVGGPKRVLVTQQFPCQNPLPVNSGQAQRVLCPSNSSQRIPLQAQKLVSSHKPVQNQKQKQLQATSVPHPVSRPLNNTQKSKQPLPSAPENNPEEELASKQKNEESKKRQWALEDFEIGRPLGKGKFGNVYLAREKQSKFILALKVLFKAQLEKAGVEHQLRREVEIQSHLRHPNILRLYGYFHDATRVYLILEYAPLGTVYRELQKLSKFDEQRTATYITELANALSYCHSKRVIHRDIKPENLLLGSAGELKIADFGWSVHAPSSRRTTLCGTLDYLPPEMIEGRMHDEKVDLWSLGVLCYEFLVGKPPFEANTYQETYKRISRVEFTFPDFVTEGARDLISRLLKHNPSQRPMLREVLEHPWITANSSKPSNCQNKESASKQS
Kind of test: Cell-free aurora kinase assay (ADP-Glo). It counts as biochemical. The conditions noted are these: myelin basic protein substrate, read-out: Aurora Kinase A Inhibition (IC50). How it is done: as §2

In test [14] the test system is H1993 cells. Kind of test: SRB cell proliferation assay. Conditions: Homo sapiens, NCI-H1993, 72 h, read-out: IC50 value, H1993.
Protocol: as §3, §4
In test [15] the test system is PC9-gef cells. Kind of test: SRB cell proliferation assay. The conditions noted are these: Homo sapiens, 72 h, read-out: IC50 value, PC9-gef.
Protocol: as §3, §4
Test [16] relates to H1975 cells. Kind of test: Cell cycle analysis (PI staining, flow cytometry). The class given is cell-based, human. Conditions: for Sub-G1 cell population: 72 h (Figure 5A). How it is done: Cells were seeded and starved in serum-free medium overnight. After starvation, the cells were treated with compounds for the indicated times. After incubation, cells were harvested, washed with PBS, and fixed with 70% ethanol in PBS overnight at −20 °C. The fixed cells were washed with PBS, resuspended in 100 µg/mL of RNase A for 30 min at room temperature, and stained with 50 µg/mL PI. Fluorescence intensity was analyzed using a FACSCalibur flow cytometer (BD Biosciences, San Jose, CA, USA) and BD CellQuest^TM Pro version 6.0 software (BD Biosciences, San Jose, CA, USA).

T1 sequence (Q96GD4 whole entry): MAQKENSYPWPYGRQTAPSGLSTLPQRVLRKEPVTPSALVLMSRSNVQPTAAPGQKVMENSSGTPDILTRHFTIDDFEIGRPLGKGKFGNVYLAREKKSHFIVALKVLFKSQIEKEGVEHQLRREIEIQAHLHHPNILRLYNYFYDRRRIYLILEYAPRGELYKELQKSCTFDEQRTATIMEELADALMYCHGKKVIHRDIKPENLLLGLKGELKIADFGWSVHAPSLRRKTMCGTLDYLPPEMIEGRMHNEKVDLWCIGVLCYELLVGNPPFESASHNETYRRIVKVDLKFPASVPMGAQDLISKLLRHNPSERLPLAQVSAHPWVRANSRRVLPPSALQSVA

As for `CCOC(=O)c1cn2cc(-c3ccc4ncn(Cc5ncccn5)c(=O)c4c3)ccc2n1` [BIQO-19, ethyl 6-(4-oxo-3-(pyrimidin-2-ylmethyl)-3,4-dihydroquinazolin-6-yl)imidazo [1,2-a]pyridine-2-carboxylate], the “colony formation in H1975 cells” value in test [1] is reported as “significant inhibition of colony formation”. The IC50 in [2] is 4.84 ± 0.17 µM; in test [3], 5.3 ± 0.06 µM; in [4] it was 4.76 ± 0.17 µM; in test [6], 3.63 ± 0.28 µM; in [8], 16.4 ± 1.44 µM; in test [9], 4.43 ± 0.35 µM. The IC50 in test [12] is 0.581 ± 0.0138 µM; in [13] it was 0.0685 ± 0.00645 µM; in [14], 5.5 ± 1.69 µM; in test [15] it was 9.21 ± 0.51 µM. Further, the “levels of p-aurora kinase A (T288) expression” value in [5] is on record as “suppressed by BIQO-19 treatment in a concentration-dependent manner”. In addition, in test [7], the “expression levels of PARP and caspase-8 (inactivated forms)” value was “downregulated”. Besides, the “expression levels of cleaved PARP and cleaved caspase-8 (activated forms)” value in [7] is recorded as “upregulated”. Moreover, the “cdc25C and cdc2 expression” value in test [10] is on record as “effectively downregulated”. Further, the p21 expression result in test [10] is listed as “upregulated”. The “total cell deaths (early apoptosis + late apoptosis + necrosis)” value in test [11] (H1975, 4 μM, 72 h (Figure 5B,C)) is 26.67%. The early apoptosis fraction in [11] (H1975, 72 h, single vs combination treatment (Figure 6C)) worked out at 17.6%. The total cell death in test [11] (H1975, 72 h, single vs combination treatment (Figure 6D)) is given as 27.1%. Moreover, the Sub-G1 cell population in test [16] (H1975, 1 μM) is reported as 2.54%; in test [16] (H1975, 2 μM) it was 2.60%; in test [16] (H1975, 4 μM), 15.5%. The G2/M cell population is listed as 35.3% in test [16] (H1975, 4 μM, 12 h (Figure 4A)) and 52.0% in [16] (H1975, 4 μM, 24 h (Figure 4A)).

With `CCC(=O)Nc1nc2ccc(-c3ccc4ncn(CCc5cc6ccccc6[nH]5)c(=O)c4c3)cc2[nH]1` [FL-4, reference compound], the IC50 stood at 4.14 ± 0.64 µM in test [2]; 5.54 ± 0.85 µM in test [3]; 2.81 ± 0.43 µM in test [4]; 6.11 ± 1.14 µM in [6]; 15 ± 1.41 µM in test [8]; 6.4 ± 0.6 µM in test [9]. Also, the IC50 came to 4.57 ± 0.29 µM in [14] and 6.75 ± 0.71 µM in test [15].

By IC50 is commonly meant the midpoint of a concentration-inhibition curve.
